From ChEMBL document CHEMBL5346965, “Synthesis of Bleomycin-Inspired RNA Ligands Targeting the Biogenesis of Oncogenic miRNAs” (J Med Chem, 2023)
The source made the active and inactive calls. The rule behind the calls is not given here.

How the values were obtained:
[1] = Antiproliferative activity against human N15-0385 cells incubated for 72 hrs by WST-1 assay; type: functional, cell-based; conditions: N15-0385, 72 h
[2] = Antiproliferative activity against human N13-1300 cells incubated for 72 hrs by WST-1 assay; type: functional, cell-based; conditions: N13-1300, 72 h
[3] = Selectivity index, ratio of IC50 for inhibition of pre-miR-21 (unknown origin) dicer cleavage activity preincubated for 30 mins followed by MCF-7 cell lysates addition and measured after 30 to 60 mins by FRET method to IC50 for inhibition of pre-miR-21 (unknown origin) dicer cleavage activity preincubated for 30 mins followed by RNAase III addition and measured after 30 to 60 mins by FRET method
microRNA 21 [4] = assay: Inhibition of pre-miR-21 (unknown origin) dicer cleavage activity preincubated for 30 mins followed by RNAase III addition and measured after 30 to 60 mins by FRET method; type: functional
microRNA 21 [5] = assay: Inhibition of pre-miR-21 (unknown origin) dicer cleavage activity preincubated for 30 mins followed by MCF7 cell lysates addition and measured after 30 to 60 mins by FRET method; type: functional, subcellular
microRNA 21 [6] = assay: Binding affinity to 5'-fluorescein labeled pre-miR-21 (unknown origin) by fluorescence based assay; type: nucleic-acid assay
microRNA 21 [7] = assay: Inhibition of pre-miR-21 (unknown origin) dicer cleavage activity upto 1 mM preincubated for 30 mins followed by RNAase III addition and measured after 30 to 60 mins by FRET method; type: functional; conditions: time 60-90 min
[8] = Antiproliferative activity against human MRC5 cells incubated for 72 hrs by WST-1 assay; type: toxicity, cell-based
U-87 MG = assay: Antiproliferative activity against human U87 cells incubated for 72 hrs by WST-1 assay; type: functional, cell-based, U-87MG ATCC

| SMILES | Ratio IC50 [3] | IC50 (microRNA 21 [4]) | IC50 (microRNA 21 [5]) | Kd (microRNA 21 [6]) | also measured |
| --- | --- | --- | --- | --- | --- |
| Cn1nnc2c(C(N)=O)ncn2c1=O [TEMOZOLOMIDE] |  |  |  |  | IC50 [1]: > 100 µM; IC50 [2]: 20.8 µM |
| NCCCCNCCCNC(=O)c1csc(-c2csc(CCNCc3ccc4[nH]cnc4c3)n2)n1 | 2.5 | 20.3 µM | 50.1 µM |  |  |
| Cc1c(N)nc([C@H](CC(N)=O)NC[C@H](N)C(N)=O)nc1C(=O)N[C@H](C(=O)N[C@H](C)[C@@H](O)[C@H](C)C(=O)N[C@H](C(=O)NCCc1nc(-c2nc(C(=O)NCCCNCCCCN)cs2)cs1)[C@@H](C)O)[C@@H](O[C@@H]1O[C@@H](CO)[C@@H](O)[C@H](O)[C@@H]1O[C@@H]1O[C@H](CO)[C@@H](O)[C@H](OC(N)=O)[C@@H]1O)c1cnc[nH]1 |  |  |  | 12.6 µM | inhibition (microRNA 21 [7]): inactive |
| C#CCCCCC(=O)NCCc1nc(-c2nc(C(=O)NCCCNCCCCN)cs2)cs1 |  |  |  | 1.87 µM |  |
| NCCCCNCCCNC(=O)c1csc(-c2csc(CCNC(=O)[C@@H](N)CCCCN)n2)n1 |  |  |  | 0.835 µM |  |
| NCCCCNCCCNC(=O)c1csc(-c2csc(CCNC(=O)[C@@H](N)Cc3c[nH]cn3)n2)n1 |  |  |  | 1.68 µM |  |
| NCCCCNCCCNC(=O)c1csc(-c2csc(CCNC(=O)CCCC[C@@H]3SC[C@@H]4NC(=O)N[C@@H]43)n2)n1 |  | 38.3 µM |  | 1.91 µM | inhibition (microRNA 21 [5]; time 60-90 min): inactive |
| NCCCCNCCCNC(=O)c1csc(-c2csc(CCNCc3ccc4scnc4c3)n2)n1 | 1.3 | 3.74 µM | 4.68 µM |  | IC50 [1]: 44.7 µM; IC50 at 72 h [8]: > 100 µM; IC50 (U-87 MG): 16.5 µM; IC50 [2]: 24.5 µM |
| NCCCCNCCCNC(=O)c1csc(-c2csc(CCN)n2)n1 |  |  |  | 3.63 µM | IC50 [1]: > 100 µM; IC50 at 72 h [8]: 16.6 µM; IC50 (U-87 MG): 37.4 µM; inhibition (microRNA 21 [4]; time 60-90 min): inactive; IC50 [2]: 67.3 µM |

More lines, main results first:

| Ratio IC50 [3] | IC50 (microRNA 21 [4]) | IC50 (microRNA 21 [5]) | Kd (microRNA 21 [6]) | SMILES | also measured |
| --- | --- | --- | --- | --- | --- |
| 5.6 | 16.4 µM | 92.8 µM | 0.33 µM | CC(C)(C)c1ccc(S(=O)(=O)NCCc2nc(-c3nc(C(=O)NCCCNCCCCN)cs3)cs2)cc1 |  |
|  | 20.3 µM |  |  | NCCCCNCCCNC(=O)c1csc(-c2csc(CCNS(=O)(=O)c3c[nH]cn3)n2)n1 |  |
|  |  |  | 0.4 µM | NCCCCNCCCNC(=O)c1csc(-c2csc(CCNC(=O)c3ccc4cccnc4n3)n2)n1 |  |
|  |  |  | 0.33 µM | Cc1ccc(S(=O)(=O)NCCc2nc(-c3nc(C(=O)NCCCNCCCCN)cs3)cs2)cc1 |  |
|  | 75.9 µM |  |  | Cc1nc(C)c(S(=O)(=O)NCCc2nc(-c3nc(C(=O)NCCCNCCCCN)cs3)cs2)s1 |  |
| 4.7 | 11.8 µM | 55.5 µM | 0.33 µM | NCCCCNCCCNC(=O)c1csc(-c2csc(CCNS(=O)(=O)c3cc4ccccc4s3)n2)n1 |  |
|  |  |  | 0.33 µM | NCCCCNCCCNC(=O)c1csc(-c2csc(CCNS(=O)(=O)c3cccc4cccnc34)n2)n1 |  |
|  |  |  | 0.33 µM | NCCCCNCCCNC(=O)c1csc(-c2csc(CCNS(=O)(=O)c3ccc4ccccc4c3)n2)n1 |  |
| 6.2 | 31.2 µM | 195 µM |  | NCCCCNCCCNC(=O)c1csc(-c2csc(CCNCc3ccccc3)n2)n1 |  |
| 4.3 | 1.62 µM | 6.93 µM | 0.076 µM | CN(C)c1ccc(/N=N/c2ccc(S(=O)(=O)NCCc3nc(-c4nc(C(=O)NCCCNCCCCN)cs4)cs3)cc2)cc1 | IC50 [1]: 37.1 µM; IC50 at 72 h [8]: > 100 µM; IC50 (U-87 MG): 45.3 µM; IC50 [2]: 22 µM |
